Consider one substance from patent US7390875B2, “Method for binding, in solution, a peptide and a lipophilic vector and uses thereof” (Institut Pasteur de Lille, priority 2000, dated 2008).

The experiment concerns class II molecules of the MHC at the surface of COLO 205 cells. Put plainly: Quantification of the expression of class II MHC molecules at the surface of COLO 205 cells after incubation with lipopeptides (flow cytometry). It is filed as cell-based, human. The conditions noted are these: Table IIIb; for Ratio (mean fluorescence treated vs non-treated cells): L243 antibody / ALEXA 488. How it is done: 2) Protocol for Quantification of the Expression of Molecules of Class II of the Major Histocompatibility Complex (MHC) at the Surface of the Cells.
The COLO 205 cells (human cell line obtained from a carcinoma of the colon) come from the ATCC (American Type Culture Collection) cell bank. They are cultivated in an RPMI 1640 medium (Gibco BRL, Courbevoie, France) with 10% of fetal calf serum (FCS) and 5 mM of sodium pyruvate, and incubated at 37° C. in the presence of 5% of CO2. […]
The surface expression of the class II molecules of the MHC is analysed using flow cytometry with a Coulter EPICS II cytometer, at the rate of 10,000 events per sample. The fluorescence intensity observed is directly proportional to the quantity of class II molecules of the MHC present on the surface of the cells. The mean fluorescence value observed for the non-treated cells and for the treated cells (“Mean” column in Table III) makes it possible to calculate a ratio between the mean fluorescence value of the non-treated cells and the mean fluorescence value for the treated cells (“Ratio” column in Table III). The control consists in incubating the cells in the absence of lipopeptides.

Starred links: 1 amine or outer side, 2 acyl side, 3 side chain; linkers in the order of their positions; H or OH if unused. Hydrazinoacetyl = O=C(CNN[*:1])[*:2]

On to “L-MU-IFNγc: presumably peptide Mu-IFNγ c (SEQ ID NO: 12) coupled with palmitoyl vector (IIIa); synthesis not described (H-K(Hydrazinoacetyl)AKFEVNNPQVQRQAFNELIRVVHQLLPESSLRKRKRSR-NH2; also: palmitoyl vector (IIIa) coupled by hydrazone bond)”, for which the “Ratio (mean fluorescence treated vs non-treated cells)” value reads like this: (5 μM lipopeptide) 2.14; (10 μM lipopeptide) 2.83; (35 μM lipopeptide) 24.8. The “Mean (mean fluorescence value)” value (5 μM lipopeptide, L243 antibody revealed by second antibody coupled to ALEXA 488, control mean 0.607) is given as 1.3; the “Mean (mean fluorescence value)” value (10 μM lipopeptide, L243 antibody / ALEXA 488, control mean 0.607) is 1.72; the “Mean (mean fluorescence value)” value (35 μM lipopeptide, L243 antibody / ALEXA 488, control mean 0.607) is on record as 15.1.
